# How the values were obtained:
# [1] = test system: extracellular concentration of serotonin in frontal cortex; assay: Microdialysis experiment in rats (frontal cortex, extracellular serotonin); type: in vivo; conditions: rat frontal cortex, M ± s.e.m.
# Source text: Carried out in the frontal cortex, these tests make it possible, in the case where the products cause an increase in the release of serotonin, to envisage their use for depression, impulsive disorders and obesity. If they cause a decrease in the release of serotonin they will be beneficial in the treatment of anxiety, panic attacks, sleep problems, cognitive problems and drug abuse problems. Finally, if they produce an increase in dopamine and/or noradrenalin, they will be beneficial in the treatment of schizophrenia and, as above, in the treatment of depression and cognitive problems.
# Microdialysis Experiment in Rats
# The rats are anaesthetised with pentobarbital (60 mg/kg i.p.). They are placed in a Kopf stereotaxic apparatus and the cannula guide is implanted in the frontal cortex cingulum in accordance with the coordinates described as follows in the Paxinos and Watson atlas (1982): AP:+2.2, L:±0.6, DV:-0.2. The rats are placed in separate cages and are not used in dialysis until 5 days later. On the day of dialysis, the probe is slowly inserted and maintained in its position. […] Simultaneous quantification of dopamine, norepinephrine and serotonin is carried out as follows: 20 μl of dialysis samples are diluted with 20 μl of mobile phase (NaH2 PO4 : 75 mM, EDTA: 20 μM, sodium 1-decanesulphonate: 1 mM, methanol: 17.5%, triethylamine: 0.01%, pH: 5.70) and 33 μl are analysed by HPLC with an inverse phase column (Hypersil ODS 5 μm, C18, 150×4.6 mm, Thermo Separation Products, Les Ulis, France) thermostatically controlled at 45° C. and quantified by way of a coulometric detector. […]
# M±s.e.m.=mean of the effect all times merged after administration of the products±standard error of the mean, and n=number of animals. The quantities of the neurotransmitters are expressed as a function of the mean of the three base values before administration of the products and are defined as 0%. […] The reversion of the decrease of the extracellular concentration of serotonin produced by GR 46611 is evaluated statistically by an analysis of variance with drugs as between factor, F (1,25)=26.5, P<0.01.
# [2] = test system: GR46611-induced hypothermia (prototype agonist 5HT1B) in the guinea-pig; assay: Hypothermia test in the guinea-pig; type: in vivo; conditions: for ΔT° C. (at 90 minutes): mean ± s.e.m., N ≥ 6
# Source text: Using the hypothermia test on the guinea-pig (M. Stingle et al., J. of Pychopharmacology, 1994. 8, 14) it was possible to determine the agonist or antagonist nature of the products of the invention.
# Hypothermia Test in the Guinea-Pig
# The guinea-pigs are kept in batteries of three, with free access to food and water, for one week before entering the study. One hour before each experiment, the guinea-pigs are placed in individual cages with free access to water. They are put back in their respective batteries at the end of each experiment. The temperature measurements are carried out using a digital thermometer and a rectal probe. Each guinea-pig is weighed, its base body temperature is taken and then the compound of the present invention to be evaluated is injected i.p. or p.o. In the case of an agonist, the body temperature of each guinea-pig is taken every 30 minutes for 2 hours.
# In the case of an antagonist, 15 minutes after its injection each guinea-pig is injected again i.p. with the prototype agonist 5HT1B : GR46611 (5 mg/kg). The temperature is then taken every 30 minutes for 2 hours.
# The criterion used for evaluation is the difference in temperature at a given time in relation to the base temperature. For each dose of product and for each time (t30, t60, t90, t120) the mean and the standard error of the mean are calculated.
# 5HT1B receptor = molecular target: T1, 5HT1B receptor (Cavia porcellus, UniProt O08892); assay: 5-HT1B binding ([3H]-GR 125743, guinea-pig striatal membranes); conditions: [3H]-GR 125743 1 nM, guinea-pig striata membranes; pKi = -log Ki
# T1 construct: After the dissection of guinea-pig brains, the extracted striata are frozen; from tissue; host or cells: guinea-pig striatum membranes
# Method: a) Preparation of the Membranes
# After the dissection of guinea-pig brains, the extracted striata are frozen and then homogenised in 20 volumes (weight/volume) of 50 mM tris-HCl (pH 7.7 at room temperature) containing 4 mM CaCl2 and 0.1% ascorbic acid, and centrifuged at 48,000 g for 25 minutes at 4° C. The supernatant is separated and the precipitate is resuspended in the same volume of buffer before being incubated at 37° C. for 15 minutes in order to extract the endogenous serotonin. Finally, the suspension is centrifuged at 48,000 g for 25 minutes at 4° C. and the precipitate is resuspended in 80 volumes of buffer that contains 10 μM pargyline. […]
# The data are analysed by non-linear regression using the PRISM programme (Graphpad Software Inc., San Diego, Calif.) in order to determine the Kd values (dissocation constant of the radioligand), the Bmax values (maximum number of sites) for the saturation experiments and the IC50 values (50% inhibiting concentration) and the Hill number for the competition experiments. The inhibition constant (Ki) is calculated according to the Cheng-Prussof equation: Ki =IC50 /1+L/Kd wherein L represents the concentration of the radioligand. The results are expressed as pKi =-log Ki.
# 5HT1A receptor = molecular target: T2, 5HT1A receptor (Rattus norvegicus, UniProt P19327); assay: 5HT1A binding; conditions: methods known from the literature; read-out: pKi 5HT1A receptor (converted)
# T2 sequence (P19327 1-422): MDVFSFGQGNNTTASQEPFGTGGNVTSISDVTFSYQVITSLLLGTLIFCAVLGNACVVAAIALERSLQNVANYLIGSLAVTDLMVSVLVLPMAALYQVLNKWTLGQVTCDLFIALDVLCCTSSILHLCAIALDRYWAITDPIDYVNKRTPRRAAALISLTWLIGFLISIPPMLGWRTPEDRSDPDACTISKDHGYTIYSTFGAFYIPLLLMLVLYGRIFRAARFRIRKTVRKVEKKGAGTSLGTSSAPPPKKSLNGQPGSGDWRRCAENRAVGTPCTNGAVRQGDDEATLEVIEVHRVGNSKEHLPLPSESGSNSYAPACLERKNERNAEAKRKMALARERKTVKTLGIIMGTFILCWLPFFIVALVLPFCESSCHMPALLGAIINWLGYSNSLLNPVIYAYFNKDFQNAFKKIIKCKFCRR
# Method: The 5HT1A receptor binding studies were carried out according to methods known and described in the literature (cf. S. J. Peroutka, J. Neurochem., 1986, 47, 529-40, M. J. Millan, J. Pharmacol. Exp. Ther., 1994, 268, 337-52). The results are also expressed as pKi. The compounds of the present invention have a very low affinity for the 5HT1A receptor.
# T1 sequence (O08892 whole entry): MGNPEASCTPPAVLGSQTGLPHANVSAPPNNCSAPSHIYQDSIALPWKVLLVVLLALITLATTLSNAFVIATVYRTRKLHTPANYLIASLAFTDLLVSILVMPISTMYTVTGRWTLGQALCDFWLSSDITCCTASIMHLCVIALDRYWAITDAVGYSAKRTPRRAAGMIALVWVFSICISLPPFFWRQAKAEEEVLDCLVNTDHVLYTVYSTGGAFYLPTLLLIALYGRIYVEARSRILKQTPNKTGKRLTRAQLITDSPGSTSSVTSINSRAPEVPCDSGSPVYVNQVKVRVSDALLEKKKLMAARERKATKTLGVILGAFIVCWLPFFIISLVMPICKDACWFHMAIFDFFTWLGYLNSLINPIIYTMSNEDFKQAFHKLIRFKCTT
compound,measurement,setting,value
"c1ccc2c(c1)CC(NC1CCN(c3cccc4c3OCCO4)CC1)C2 [Example 1, 1-(2,3-dihydro[1,4]benzodioxin-5-yl)-4-[N-(indan-2-yl)amino]piperidine]","extracellular serotonin, mean effect all times merged relative to base values (0%)",[1]; Product of Example 1 10.0 mg/kg s.c. + GR 46611 10.0 mg/kg s.c. 20 minutes later,+0.7 ± 3.4%
same,"extracellular serotonin, mean effect all times merged relative to base values (0%)",[1]; Product of Example 1 10.0 mg/kg s.c. + Vehicle,-9.5 ± 3.7%
same,ΔT° C. (at 90 minutes),[2]; Product of Example 1 0.04 mg/kg i.p. then GR 46611 5 mg/kg i.p.,-0.82 ± 0.30 °C
same,ΔT° C. (at 90 minutes),[2]; Product of Example 1 0.16 mg/kg i.p. then GR 46611 5 mg/kg i.p.,-0.75 ± 0.22 °C
same,agonist or antagonist nature,"[2]; hypothermia test, i.p.",acts as an antagonist
"c1cc2c(c(N3CCC(NC4Cc5cc6c(cc5C4)OCO6)CC3)c1)OCCO2 [Example 3, 1-(2,3-dihydro[1,4]benzodioxin-5-yl)-4-[N-(5,6-methylenedioxyindan-2-yl)amino]-piperidine]",Ki,5HT1B receptor,0.00316 µM
same,Ki,5HT1A receptor,0.631 µM
"COc1ccc(CNC(=O)C=Cc2ccc3[nH]cc(CCN(C)C)c3c2)cc1 [GR 46611, reference compound]","extracellular serotonin, mean effect all times merged relative to base values (0%)",[1]; Vehicle + GR 46611 10.0 mg/kg s.c.,-40.7 ± 2.3%
same,ΔT° C. (at 90 minutes),[2]; Vehicle i.p. then GR 46611 5 mg/kg i.p.,-1.04 ± 0.15 °C

# Reference: US5968954A, “2-aminoindan compounds as 5HT1B antagonists” (Adir et Compagnie, priority 1997, dated 1999)
